Tests used:
Test in all cases: AlphaScreen GID1-DELLA interaction
Type in all cases: biochemical
AtGID1b (with AtRGA) = biological target: T1, AtGID1b (with AtRGA) (Arabidopsis thaliana, UniProt Q9LYC1); details: agonist; partner AtRGA; pH 8.0, 26 °C; unpurified cell-free proteins
T1 construct: gene GID1B; C-terminal biotinylated GID1 and C-terminal FLAG-tagged DELLA, wheat germ cell-free synthesis, unpurified; with DELLA protein RGA
T1 sequence (Q9LYC1 2-358): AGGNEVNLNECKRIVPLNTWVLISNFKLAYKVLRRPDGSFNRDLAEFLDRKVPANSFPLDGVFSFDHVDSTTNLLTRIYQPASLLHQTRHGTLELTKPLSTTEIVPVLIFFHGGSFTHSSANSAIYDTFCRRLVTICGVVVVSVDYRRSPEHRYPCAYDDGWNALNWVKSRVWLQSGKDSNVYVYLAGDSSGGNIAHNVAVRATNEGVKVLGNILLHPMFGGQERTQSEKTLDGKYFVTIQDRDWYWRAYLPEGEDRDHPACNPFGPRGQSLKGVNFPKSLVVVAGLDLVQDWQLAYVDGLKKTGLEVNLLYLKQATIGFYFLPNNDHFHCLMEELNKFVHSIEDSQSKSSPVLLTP
T1 sequence (Q9SLH3 1-587 partner): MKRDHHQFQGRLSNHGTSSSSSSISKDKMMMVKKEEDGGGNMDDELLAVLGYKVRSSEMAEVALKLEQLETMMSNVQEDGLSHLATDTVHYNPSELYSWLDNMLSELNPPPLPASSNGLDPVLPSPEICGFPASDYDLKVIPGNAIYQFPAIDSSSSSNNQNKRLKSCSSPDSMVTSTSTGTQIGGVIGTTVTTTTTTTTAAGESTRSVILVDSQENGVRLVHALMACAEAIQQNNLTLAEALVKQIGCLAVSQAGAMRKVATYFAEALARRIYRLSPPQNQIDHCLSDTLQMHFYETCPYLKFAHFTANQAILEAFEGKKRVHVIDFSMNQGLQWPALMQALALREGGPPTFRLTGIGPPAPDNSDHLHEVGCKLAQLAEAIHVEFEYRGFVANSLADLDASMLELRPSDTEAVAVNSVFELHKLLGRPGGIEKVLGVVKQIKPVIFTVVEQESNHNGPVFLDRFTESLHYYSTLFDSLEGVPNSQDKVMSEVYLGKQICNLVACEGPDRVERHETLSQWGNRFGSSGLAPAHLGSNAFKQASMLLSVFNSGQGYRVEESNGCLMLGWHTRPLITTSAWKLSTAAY

AtGID1c (with AtRGA) = biological target: T2, AtGID1c (with AtRGA) (Arabidopsis thaliana, UniProt Q940G6); details: agonist; partner AtRGA (also AtGAI); pH 8.0, 26 °C; unpurified cell-free proteins
T2 construct: gene GID1C; C-terminal biotinylated GID1 and C-terminal FLAG-tagged DELLA, wheat germ cell-free synthesis, unpurified; also tested with AtGAI; with DELLA protein RGA
T2 sequence (Q940G6 2-344): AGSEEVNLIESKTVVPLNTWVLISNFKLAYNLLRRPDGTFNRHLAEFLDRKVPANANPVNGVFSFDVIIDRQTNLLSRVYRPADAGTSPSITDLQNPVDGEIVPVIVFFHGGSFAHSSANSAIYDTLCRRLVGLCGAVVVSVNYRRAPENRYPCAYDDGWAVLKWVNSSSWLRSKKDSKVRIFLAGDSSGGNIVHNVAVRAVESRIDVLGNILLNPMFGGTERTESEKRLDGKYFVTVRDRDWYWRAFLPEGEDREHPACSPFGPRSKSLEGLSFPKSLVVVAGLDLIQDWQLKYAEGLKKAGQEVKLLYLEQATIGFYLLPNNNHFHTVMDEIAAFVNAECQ
T2 sequence (Q9SLH3 1-587 partner): T1 sequence (Q9SLH3 1-587 partner)

OsGID1 (with OsSLR) = biological target: T3, OsGID1 (with OsSLR) (Oryza sativa, UniProt Q6L545, V326I/L330F); details: agonist; partner OsSLR; pH 8.0, 26 °C; unpurified cell-free proteins
T3 construct: gene GID1; C-terminal biotinylated GID1 and C-terminal FLAG-tagged DELLA, wheat germ cell-free synthesis, unpurified; with DELLA protein SLR1
T3 sequence (Q6L545 1-354 V326I/L330F): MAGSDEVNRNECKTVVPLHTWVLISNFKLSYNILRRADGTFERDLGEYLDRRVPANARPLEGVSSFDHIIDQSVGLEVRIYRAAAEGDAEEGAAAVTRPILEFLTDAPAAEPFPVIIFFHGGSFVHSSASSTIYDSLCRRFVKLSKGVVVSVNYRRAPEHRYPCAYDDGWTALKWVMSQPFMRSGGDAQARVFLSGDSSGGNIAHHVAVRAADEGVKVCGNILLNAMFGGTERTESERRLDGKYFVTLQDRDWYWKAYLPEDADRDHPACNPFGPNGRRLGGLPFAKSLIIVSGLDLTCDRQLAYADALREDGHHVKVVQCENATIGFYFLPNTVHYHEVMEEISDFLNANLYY
T3 sequence (Q7G7J6 1-625 partner): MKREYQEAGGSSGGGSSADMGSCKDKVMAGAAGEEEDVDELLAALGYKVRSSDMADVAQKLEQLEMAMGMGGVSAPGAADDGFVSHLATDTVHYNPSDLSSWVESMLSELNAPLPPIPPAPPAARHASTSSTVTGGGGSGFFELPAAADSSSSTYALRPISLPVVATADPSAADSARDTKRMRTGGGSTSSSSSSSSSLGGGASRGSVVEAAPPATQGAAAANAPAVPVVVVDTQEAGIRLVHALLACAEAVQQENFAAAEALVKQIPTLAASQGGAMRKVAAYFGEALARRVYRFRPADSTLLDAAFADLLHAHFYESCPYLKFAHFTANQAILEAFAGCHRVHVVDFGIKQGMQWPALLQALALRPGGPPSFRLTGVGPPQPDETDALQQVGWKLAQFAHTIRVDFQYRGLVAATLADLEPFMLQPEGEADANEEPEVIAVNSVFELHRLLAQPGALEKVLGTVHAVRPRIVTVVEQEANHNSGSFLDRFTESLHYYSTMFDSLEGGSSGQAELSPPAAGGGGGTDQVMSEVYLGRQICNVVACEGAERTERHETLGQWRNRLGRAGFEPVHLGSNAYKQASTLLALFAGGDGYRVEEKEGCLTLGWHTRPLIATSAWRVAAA

VvGID1b (with VvDELLA2) = biological target: T4, VvGID1b (with VvDELLA2) (Vitis vinifera, UniProt F6HQ36); details: agonist; partner VvDELLA2 (also VvDELLA1); dose series; pH 8.0, 26 °C; unpurified cell-free proteins
T4 construct: C-terminal biotinylated GID1 and C-terminal FLAG-tagged DELLA, wheat germ cell-free synthesis, unpurified; cDNA from grape leaf mRNA; with DELLA protein
T4 sequence (F6HQ36 1-344): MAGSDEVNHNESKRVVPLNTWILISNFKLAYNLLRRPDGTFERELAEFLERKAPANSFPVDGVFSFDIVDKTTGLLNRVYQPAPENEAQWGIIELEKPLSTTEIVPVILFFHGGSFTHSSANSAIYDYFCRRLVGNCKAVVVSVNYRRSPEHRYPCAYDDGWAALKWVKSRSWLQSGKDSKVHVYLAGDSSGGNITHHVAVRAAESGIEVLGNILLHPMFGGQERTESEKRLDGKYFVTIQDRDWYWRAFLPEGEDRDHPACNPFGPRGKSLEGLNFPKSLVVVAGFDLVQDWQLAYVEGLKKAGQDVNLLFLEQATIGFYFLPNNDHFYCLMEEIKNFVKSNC
T4 sequence (F6HH58 1-532 partner): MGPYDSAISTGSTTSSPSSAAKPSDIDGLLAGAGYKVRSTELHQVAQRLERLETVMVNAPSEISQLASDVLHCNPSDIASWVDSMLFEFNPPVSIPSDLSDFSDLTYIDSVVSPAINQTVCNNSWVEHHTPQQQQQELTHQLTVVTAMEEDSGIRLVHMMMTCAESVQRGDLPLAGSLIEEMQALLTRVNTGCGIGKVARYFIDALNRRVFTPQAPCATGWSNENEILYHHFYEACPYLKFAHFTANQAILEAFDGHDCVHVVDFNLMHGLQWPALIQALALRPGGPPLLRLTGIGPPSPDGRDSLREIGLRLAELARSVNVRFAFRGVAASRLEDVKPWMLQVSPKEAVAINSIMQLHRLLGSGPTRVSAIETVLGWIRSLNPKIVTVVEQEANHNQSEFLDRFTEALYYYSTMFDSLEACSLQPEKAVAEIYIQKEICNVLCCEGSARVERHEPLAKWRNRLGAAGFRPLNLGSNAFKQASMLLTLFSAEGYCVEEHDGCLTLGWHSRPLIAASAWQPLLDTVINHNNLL

VvGID1a (with VvDELLA2) = biological target: T5, VvGID1a (with VvDELLA2) (Vitis vinifera, UniProt A5BRG2); details: agonist; partner VvDELLA2 (also VvDELLA1, VvDELLA3); dose series; pH 8.0, 26 °C; unpurified cell-free proteins
T5 construct: C-terminal biotinylated GID1 and C-terminal FLAG-tagged DELLA, wheat germ cell-free synthesis, unpurified; also tested with VvDELLA1 and VvDELLA3; with DELLA protein
T5 sequence (A5BRG2 1-344): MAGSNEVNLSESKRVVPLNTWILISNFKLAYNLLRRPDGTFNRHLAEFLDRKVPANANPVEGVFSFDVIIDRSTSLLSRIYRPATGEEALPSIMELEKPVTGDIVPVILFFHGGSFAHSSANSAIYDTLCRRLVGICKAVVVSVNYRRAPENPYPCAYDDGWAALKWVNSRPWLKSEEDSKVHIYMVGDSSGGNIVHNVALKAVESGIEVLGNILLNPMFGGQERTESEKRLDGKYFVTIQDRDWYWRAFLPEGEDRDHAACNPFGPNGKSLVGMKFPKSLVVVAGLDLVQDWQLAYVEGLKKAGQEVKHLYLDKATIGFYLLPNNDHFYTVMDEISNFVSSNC
T5 sequence (F6HH58 1-532 partner): T4 sequence (F6HH58 1-532 partner)

AlphaScreen GID1-DELLA interaction (AtGID1c (with AtRGA)) | Structure (SMILES) | AlphaScreen GID1-DELLA interaction (AtGID1b (with AtRGA)) | AlphaScreen GID1-DELLA interaction (OsGID1 (with OsSLR)) | AlphaScreen GID1-DELLA interaction (VvGID1b (with VvDELLA2)) | AlphaScreen GID1-DELLA interaction (VvGID1a (with VvDELLA2))
AtGID1c with AtRGA and AtGAI | CCCCCC(C(=O)O)(c1ccccc1)c1ccccc1 [diphegaractin, 2,2-diphenylheptanoic acid] | it promoted the interaction of AtGID1b with AtRGA | OsGID1 V326I/L330F mutant increased the interaction with OsSLR by diphegaractin | diphegaractin induced two interactions, VvGID1b–VvDELLA1 and VvGID1b–VvDELLA2 | –
– | C=C1C[C@]23C[C@H]1CC[C@H]2[C@@]12CC[C@H](O)[C@@](C)(C(=O)O1)[C@H]2[C@@H]3C(=O)O [GA4] | – | – | VvGID1b also exhibited active and inactive GA-dependent interactions with VvDELLA1 and VvDELLA2 | VvGID1a exhibited GA-dependent interactions with VvDELLA1-3
– | C=C1C[C@]23C[C@@]1(O)CC[C@H]2[C@@]12CCC[C@@](C)(C(=O)O1)[C@H]2[C@@H]3C(=O)O [GA20] | – | – | – | Although a much higher concentration was required, inactive GAs also induced these interactions
– | C=C1C[C@]23C[C@@]1(O)CC[C@H]2[C@@]12CC[C@H](O)[C@@](C)(C(=O)O1)[C@H]2[C@@H]3C(=O)O [GA1] | – | – | VvGID1b also exhibited active and inactive GA-dependent interactions with VvDELLA1 and VvDELLA2 | VvGID1a exhibited GA-dependent interactions with VvDELLA1-3
– | C=C1C[C@]23C[C@H]1CC[C@H]2[C@@]12C=C[C@H](O)[C@@](C)(C(=O)O1)[C@H]2[C@@H]3C(=O)O [GA7] | – | – | VvGID1b also exhibited active and inactive GA-dependent interactions with VvDELLA1 and VvDELLA2 | VvGID1a exhibited GA-dependent interactions with VvDELLA1-3
– | C=C1C[C@]23C[C@H]1CC[C@H]2[C@@]12CCC[C@@](C)(C(=O)O1)[C@H]2[C@@H]3C(=O)O [GA9] | – | – | – | Although a much higher concentration was required, inactive GAs also induced these interactions
– | C=C1C[C@]23C[C@@]1(O)CC[C@H]2[C@@]12C=C[C@H](O)[C@@](C)(C(=O)O1)[C@H]2[C@@H]3C(=O)O [GA3] | – | swapping had little effect on the interaction between DELLA proteins and GA receptors by GA3 | VvGID1b also exhibited active and inactive GA-dependent interactions with VvDELLA1 and VvDELLA2 | VvGID1a exhibited GA-dependent interactions with VvDELLA1-3

From PMC10170162, “Identification of a new gibberellin receptor agonist, diphegaractin, by a cell-free chemical screening system” (Communications Biology, 2023)
